This is an account of results in PubChem BioAssay (NCI).

Common to all, as to assay: inhibition of tumour cell growth, NCI panel, 48 h
The test system of test [1] is T-47D breast.
Test [2] has as its system SNB-19 CNS.
The test system of test [3] is HOP-92 NSCLC.
Test [4] has as its system SK-MEL-2 melanoma.
Test [5] has as its system COLO 205 colon.
Test [6] relates to LOX IMVI melanoma.
The test system of test [7] is ACHN renal.
Test [8] concerns HCC-2998 colon.
For test [9], the system named is SK-MEL-5 melanoma.
The subject of test [10] is TK-10 renal.
Test [11] has as its system NCI-H460 lung.

The structures appear in SMILES notation.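 The compound was tested at five concentrations on cells cultured in 96-well plates, with a 48-hour exposure period. TGI: total growth inhibition.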

Consider `CCC(=O)OCc1ccc2oc(=O)c(C(=O)Oc3cncc(Cl)c3)cc2c1`, for which the TGI in test [1], in test [2], in test [3], in test [4], in [5] and in test [6] was > 100 µM throughout. For the same compound, the TGI in test [7], in [8], in [9], in test [10] and in [11] was > 100 µM in each case.
Take `COc1ccc(C(=O)N2CCN(c3ccc4c(c3)OCC(=O)N4)CC2)cc1`: the TGI in [1], in test [2], in test [3], in test [4], in test [5] and in [6] was > 100 µM throughout. For the same compound, the TGI in test [7], in test [8], in test [9], in test [10] and in [11] was > 100 µM in each case.
`Cn1c(N2CCCC2)c(C=O)c(=O)n(C)c1=O`: the TGI in [1], in test [2], in [3], in [4], in test [5] and in [6] was > 100 µM each time. In addition, the TGI in [7], in test [8], in [9], in [10] and in test [11] was > 100 µM each time.
Consider `OC(c1cccs1)c1cc2ccccc2s1` (configuration not stated), for which the TGI in [1], in test [2], in [3], in test [4], in test [5] and in [6] was > 10 µM throughout. The TGI in [7], in [8], in [9], in [10] and in test [11] was > 10 µM throughout.
In the case of `C=C1C(=O)OC2/C=C(\C)C(O)CC(O)C(C)(O)CC(OC(=O)/C(C)=C/C)C12` (configuration not stated), the TGI in test [1] is > 100 µM; in test [2] it was > 100 µM; in test [3], 99.8 µM; in test [4], > 100 µM; in test [5] it was > 100 µM; in test [6] it was > 100 µM. In addition, the TGI in [7], in test [8], in test [9], in test [10] and in test [11] was > 100 µM in each case.
Regarding `COC(=O)c1ccc2n1C1CC3CC(CC2C3)C1`, the TGI in [1], in [2], in test [3], in test [4], in test [5] and in test [6] was > 100 µM in each case. In addition, the TGI in [7], in [8], in test [9], in test [10] and in test [11] was > 100 µM throughout.
For `CCN1/C(=C/c2ccc3ccccc3[n+]2CC)C=Cc2ccccc21`, the TGI in test [1] was found to be 6.31 µM; in test [2], 27.8 µM; in [3], 6.93 µM; in test [4], 3.9 µM; in test [6], 4.86 µM; in test [7], 31.5 µM. The TGI in test [8] stood at 13.4 µM; in test [9], 3.77 µM; in test [10], 26.4 µM; in test [11] it was 4.95 µM.
Consider `O=C(O)c1c(-c2c3ccc(=O)cc-3oc3cc(O)ccc23)cc2ccccc2c1-c1ccccc1`, for which the TGI in [1], in [2], in [3], in test [4], in [5] and in [6] was > 100 µM throughout. Moreover, the TGI is > 100 µM in test [7]; > 68.4 µM in [8]; > 100 µM in [9]; > 100 µM in [10]; > 100 µM in test [11].
Regarding `OC1C(O)C(O)C(O)C(O)C1O` (configuration not stated), the TGI in test [1], in test [2], in test [3], in test [4], in test [5] and in [6] was > 1000 µM throughout. In addition, the TGI in [7], in [8], in test [9], in test [10] and in [11] was > 1000 µM throughout.
With `Cc1cccc2sc(NC(=O)c3cc([N+](=O)[O-])ccc3Cl)nc12`, the TGI in test [1] is > 100 µM; in test [2], > 100 µM; in test [3] it was > 31.2 µM; in test [4], > 100 µM; in [5] it was > 71.3 µM; in test [6] it was 6.64 µM. Besides, the TGI in test [7] is > 100 µM; in test [8] it was 40.2 µM; in test [9], 5.32 µM; in test [10] it was 11.4 µM; in [11], > 100 µM.
Turning to `c1ccc2c(c1)CCc1c-2n(CCN2CCCCC2)c2ccccc12`, the TGI in [1] was found to be 44.5 µM; in test [2] it was 94.5 µM; in [3], 35 µM; in [4], 30.2 µM; in test [5], 26.2 µM; in [6], 29.6 µM. The TGI came out at 39.3 µM in test [7]; 26.4 µM in [8]; 12.9 µM in test [9]; 35.9 µM in test [10]; 29.7 µM in test [11].
In the case of `CCOC(OCC)C(CC)[Se]c1ccccc1[N+](=O)[O-]` (configuration not stated), the TGI in [1] was > 100 µM; in test [2], > 94.5 µM; in [3], > 61.1 µM; in test [4] it was > 90.4 µM; in test [5], 8.92 µM; in test [6] it was 37.8 µM. Also, the TGI in test [7] is > 100 µM; in test [8] it was 14.3 µM; in [9], 30.9 µM; in test [10] it was > 100 µM; in test [11] it was 18.6 µM.
In the case of `N[C@@H]1c2c(Br)sc(Br)c2[C@H](O)[C@@H]1O`, the TGI in [1], in test [2], in test [3], in test [4], in test [5] and in [6] was > 100 µM in each case. For the same compound, the TGI in test [7], in [8], in test [9], in [10] and in test [11] was > 100 µM throughout.
